Measured values published in patent US20080280866A1, “Method of Treating or Sepsis” (priority 2004, published 2008).
“Also recorded” adds a separate entry of the source. Read-outs that look alike come from different tables or passages of the source.

Legend:
[1] = test system: rat traumatic, hemorrhagic shock model; experiment: Rat traumatic, hemorrhagic shock model, treatment prior to shock
p38 MAP kinase = experiment: Rat T/HS, post-shock treatment: Western blot of PMN phosphorylated p38 MAP kinase; assay type: in vivo; conditions: IP post-treatment; PMN lysates 3 hours after T/HS; FIG. 4
Description: The phosphorylation of p38-mitogen associated protein kinase [“p38 MAP kinase”] in the presence of inflammatory stimuli is a key cellular mechanism involved in irreversible neutrophil activation and post-shock organ injury. Male rats underwent T/HS with or without 4-[4-(4-chloro-phenyl)-thiazol-2-ylamino]-phenol or N-propargyl-nitrendipine administered IP in post-treatment as above. At the end of 3 hours post reperfusion, animals were sacrificed by exsanguination. PMN were isolated. Whole cell lysates were probed using specific antibodies for phosphorylated p38 MAP kinase. SOC inhibition via either strategy led to diminished activation. Lysates of rat PMN were sampled 3 hours after T/HS. Animals were treated with 4-[4-(4-chloro-phenyl)-thiazol-2-ylamino]-phenol or vehicle (DMSO) at the time of resuscitation. Positive controls (+) were rat PMN activated in vitro with fMLP. […] Thus SIP/SOC inhibition diminishes PMN p38 MAP kinase activation by T/HS.

rat T/HS = experiment: Rat T/HS, post-shock treatment: lung MPO and Evans Blue dye leak; assay type: in vivo; conditions: IP after return of 10% of shed blood, estimated plasma level 30 μM; 3 hours after reperfusion; FIG. 1
Description: Male rats underwent standard T/HS. 4-[4-(4-Chloro-phenyl)-thiazol-2-ylamino]-phenol or N-propargyl-nitrendipine (estimated plasma level 30 μM for each) or vehicle were administered IP after the return of 10% of total shed blood to the animal. Different groups of animals (n=6/group) were sacrificed 3 hours after reperfusion for bronchoalveolar lavage and Evan's Blue dye leak assay, or to harvest the lungs for MPO assays (FIG. 1).
N=6 animals per condition, *p<0.01 for inter-group comparisons.

[2] = assay type: in vivo
Description: In all the above experiments, rats undergoing T/HS were treated with SKI-2 or N-propargyl-nitrendipine given as an IP bolus just after the BP nadir. At this point, MAP has risen only from 30-40 to approximately 50 mmHg.

PMN = experiment: Rat T/HS, post-shock treatment: PMN CD11b and respiratory burst by flow cytometry; assay type: in vivo; conditions: IP post-treatment, whole blood 3 hrs post reperfusion; for PMN CD11b expression: FIG. 2; for PMN priming for respiratory burst initiated by PMA: FIG. 3
Description: Male rats underwent T/HS with or without 4-[4-(4-chloro-phenyl)-thiazol-2-ylamino]-phenol or N-propargyl-nitrendipine administered IP in post-treatment as above. Small (200 μL) whole blood samples removed prior to shock and 3 hrs post reperfusion were assayed for PMN CD11b (FIG. 2) and respiratory burst (FIG. 3) by flow cytometry. […] Left histogram, preshock; Right histogram, 3 h post-shock; Center (dark) histogram, 3 h post-shock PMN from animal treated with the indicated drug during resuscitation. Representative flow histograms, n=3-4 per condition. P<0.01, ANOVA/Tukey's test for all inter-group comparisons. […] Representative flow histograms are arranged as in FIG. 2, n=3-4 per condition. P<0.01 by ANOVA/Tukey's test for all inter-group comparisons.

SOC channels = conditions: HL-60 cells, values determined by Harper; cited from earlier work
[3] = test system: voltage-dependent L-type calcium channels; conditions: GH4C1 cells, values determined by Harper; cited from earlier work
PMN SOC = conditions: cited from earlier work
[4] = IP bolus just after the BP nadir

Oc1ccc(Nc2nc(-c3ccc(Cl)cc3)cs2)cc1 [SKI-2, 4-[4-(4-Chloro-phenyl)-thiazol-2-ylamino]-phenol]
CD11b (MFI) ([1]; PMN activation by flow cytometry, IP at laparotomy prior to shock, estimated plasma level 30 μM, 3 hours after resuscitation): 225 ± 18 MFI
Evans Blue (%) ([1]; lung injury as % Evans Blue dye leak, IP prior to shock, estimated plasma level 30 μM, 3 hours after resuscitation): 3.8 ± 1.7 %
Hemodynamic effects ([1]; pre-treatment IP): No unexpected hemodynamic effects were noted
Phlebotomy volumes ([1]; treatment vs placebo groups, pre-treatment IP): identical in the treatment and placebo groups
PMN p38 MAP kinase phosphorylation/activation (p38 MAP kinase): attenuation of MAPK activation
Capillary-alveolar leakage (Evans Blue dye leak) (rat T/HS): prevented PMN accumulation and subsequent capillary-alveolar leakage; also recorded: inhibits PMN mediated lung injury
Pulmonary PMN infiltration/accumulation (MPO assay) (rat T/HS): prevented PMN accumulation; also recorded: inhibits PMN mediated lung injury
Episodes of hypotension [2, 4]: No episodes of hypotension were seen
Survival of the acute shock phase ([2]; rat, in vivo, ip): all animals survived the acute shock phase
PMN CD11b expression (PMN): decreased CD11b expression almost to the level seen prior to shock
PMN priming for respiratory burst initiated by PMA (PMN): decreased PMN priming for respiratory burst initiated by PMA (phorbol 12-myristate 13-acetate) almost to the levels seen prior to shock

C#CCN1C(C)=C(C(=O)OC)C(c2cccc([N+](=O)[O-])c2)C(C(=O)OCC)=C1C (stereo not shown) [Compound 35, N-propargyl-nitrendipine]
Attenuation of lung injury ([1]; pre-treatment IP, target concentration 30 μm): Identical attenuation of lung injury as in Example 1
Lung PMN infiltration by myeloperoxidase (MPO) assay ([1]; pre-treatment IP, data not shown): diminished lung PMN infiltration
IC50 (SOC channels): 1700 ± 1300 nM
PMN p38 MAP kinase phosphorylation/activation (p38 MAP kinase): Attenuation of p38 MAP Kinase phosphorylation and activation was also seen
Capillary-alveolar leakage (Evans Blue dye leak) (rat T/HS): prevented PMN accumulation and subsequent capillary-alveolar leakage; also recorded: yielded the same effects
Pulmonary PMN infiltration/accumulation (MPO assay) (rat T/HS): prevented PMN accumulation; also recorded: yielded the same effects
Episodes of hypotension [2, 4]: No episodes of hypotension were seen
Survival of the acute shock phase [2, 4]: all animals survived the acute shock phase
PMN CD11b expression (PMN): decreased CD11b expression almost to the level seen prior to shock
PMN priming for respiratory burst initiated by PMA (PMN): decreased PMN priming for respiratory burst initiated by PMA (phorbol 12-myristate 13-acetate) almost to the levels seen prior to shock
IC50 [3]: 2100 ± 200 nM

COC(=O)C1=C(C)N(C)C(C)=C(C(=O)OC)C1c1cccc([N+](=O)[O-])c1 [Compound 30]
IC50 (SOC channels): 2800 ± 30 nM
IC50 [3]: 2000 nM

CCOC(=O)C1=C(C)N(CC)C(C)=C(C(=O)OC)C1c1cccc([N+](=O)[O-])c1 (stereo not shown) [Compound 33]
IC50 (SOC channels): 6000 nM
IC50 [3]: 2300 ± 400 nM

[Gd+3] [gadolinium (Gd3+), gadolinium]
Concentration inhibiting PMN SOC (PMN SOC): low-mid nanomolar concentrations

C=CCN1C(C)=C(C(=O)OC)C(c2cccc([N+](=O)[O-])c2)C(C(=O)OCC)=C1C (stereo not shown) [Compound 34]
IC50 (SOC channels): 6800 ± 1800 nM
IC50 [3]: 3800 ± 1800 nM

CCOC(=O)C1=C(C)N(C)C(C)=C(C(=O)OC)C1c1cccc([N+](=O)[O-])c1 (stereo not shown) [Compound 32]
IC50 (SOC channels): 2600 ± 1100 nM
IC50 [3]: 1300 ± 300 nM
